Legend:
Type in all cases: in vivo
[1] = tested on: anti-glucose-6-phosphate isomerase (GPI) Ig; test: Serum anti-GPI Ig titer in treated K/BxN mice; details: FIG. 2A; IgM and IgG isotypes, vs carrier alone
From the text: (§1) FIG. 2A is a graph of the titer of serum anti-glucose-6-phosphate isomerase (GPI) IgM and IgG isotypes from K/BxN mice treated with 1-methyl-tryptophan or carrier alone. FIG. 2B is a graph of the number of anti-GPI secreting cells per 10^5 cells present in the spleen, draining lymph nodes (dLN), and non-draining lymph nodes (non-dLN) of K/BxN mice treated with 1-methyl-tryptophan or carrier alone.
(§2) K/BxN mice produce arthritogenic Abs directed against GPI, which develop at high titers because of the preferential help that B cells expressing GPI-specific immunoglobulins receive from GPI-reactive T cells displaying the transgene-encoded TCR.

[2] = tested on: anti-GPI antibody secreting cells; test: Anti-GPI antibody secreting cells in spleen and lymph nodes of treated K/BxN mice; details: FIG. 2B; spleen, draining lymph nodes (dLN), non-draining lymph nodes (non-dLN), vs carrier alone
From the text: as §1, §2

[3] = tested on: K/BxN mice; test: Arthritis prevention in K/BxN mice, treatment from weaning, rear ankle thickness
From the text: K/BxN TCR transgenic mice express a TCR reactive to a self-peptide derived from the glucose-6-phosphate isomerase (GPI), presented by the MHC class II molecule A^g7 (Korganow et al. (1999) Immunity, 10:451-461; Kouskoff et al. (1996) Cell, 87:811-822; Matsumoto et al. (1999) Science, 286:1732-1735). K/BxN mice spontaneously develop a very aggressive form of arthritis at 3 to 4 weeks of age. […] The arthritis experienced by K/BxN mice is joint specific and allows for the scoring of the arthritis by caliper measurement of ankle thickness (Korganow et al. (1999) Immunity, 10:451-461; Ji et al. (2001) J. Exp. Med., 194:321-330).
Starting at weaning (21 days of age) K/BxN mice were administered 400 mg/kg of 1-methyl-D-tryptophan, 400 mg/kg of 1-methyl-L-tryptophan, or carrier alone b.i.d. (twice daily) by p.o. (oral) gavage.
Mice were given 400 mg/kg/dose (100 μl total volume) of D/L-1MT or D-1MT diluted in METHOCEL™/Tween® (0.5% Tween 80, 0.5% methylcellulose (v/v in water) twice daily by oral gavage (p.o.) using a curved feeding needle as described (Muller et al. (2005) Nat. Med., 11:312-319). 1MT was administered on a b.i.d. schedule, once in the morning and once in the evening. Methotrexate (MTX) was diluted in 0.5% carboxymethyl cellulose and administered by oral gavage at a range of doses 1-25 mg/kg/dose (0.1 cc/20 g mouse) using a curved feeding needle. The mice were given one dose per week as described (Asanuma et al. (2002) Eur. J. Pharmacol., 435:253-258). Control mice were given an equal volume of carrier alone (METHOCEL™/Tween®).
For the arthritis prevention experiments, MTX and/or 1MT treatment was started on the day of weaning (age 21 days). For the treatment of established arthritis, MTX and/or 1MT was administered after the mice had measurable arthritis.
The two rear ankles of MTX, 1MT, MTX+1 MT, or carrier-treated K/BxN mice were measured starting at weaning (3 wk of age) as described (Mandik-Nayak et al. (2002) Proc. Natl. Acad. Sci., 99:14368-14373). Measurement of ankle thickness was made above the footpad axially across the ankle joint using a Fowler Metric Pocket Thickness Gauge.

[4] = Example 1, FIG. 1, 400 mg/kg b.i.d. p.o. from 21 days of age, vs carrier alone
[5] = Example 2, FIG. 3, 400 mg/kg p.o. b.i.d. from 21 days, n=5
[6] = FIG. 4, MTX 1, 10 or 25 mg/kg weekly p.o. from 3 weeks of age, increasing amounts

In the case of `Cn1cc(C[C@H](N)C(=O)O)c2ccccc21` (racemic) [1-MT, 1-methyl-tryptophan], the “levels of serum anti-GPI Ig” value [1] is reported as “reduced levels of serum anti-GPI Ig” and the “numbers of anti-GPI antibody secreting cells” value [2] is reported as “reduced numbers of anti-GPI antibody secreting cells”.

`Cn1cc(C[C@@H](N)C(=O)O)c2ccccc21` [1-methyl-D-tryptophan] was tested, and the “degree of arthritis (mean ankle thickness)” value [3, 4] was “greatly reduced the degree of arthritis”, the onset of arthritis [3, 4] was “delayed the onset of arthritis” and the “degree of arthritis (mean ankle thickness)” value [3, 5] was “reduced the degree of arthritis”. For the same compound, the onset of arthritis [3, 5] was “delayed the onset of arthritis” and the arthritis development ([3]; FIG. 3 legend, 400 mg/kg p.o. b.i.d. from 21 days) was “inhibits arthritis development”.

`Cn1cc(CC(N)C(=O)O)c2ccccc21` [1-methyl-D/L-tryptophan] was tested, and the “degree of arthritis (mean ankle thickness)” value [3, 5] was “reduced the degree of arthritis” and the onset of arthritis [3, 5] was “delayed the onset of arthritis”.

For `Cn1cc(C[C@H](N)C(=O)O)c2ccccc21` [1-methyl-L-tryptophan], the “degree of arthritis (mean ankle thickness)” value [3, 4] was “greatly reduced the degree of arthritis” and the onset of arthritis [3, 4] was “delayed the onset of arthritis”.

In the case of `CN(Cc1cnc2nc(N)nc(N)c2n1)c1ccc(C(=O)N[C@@H](CCC(=O)O)C(=O)O)cc1` [MTX, methotrexate], the degree of arthritis [3, 6] is reported as “reduced the degree of arthritis”, the onset of arthritis [3, 6] is reported as “inhibited the onset of arthritis” and the arthritis development ([3]; FIG. 4 legend, MTX 1, 10 or 25 mg/kg weekly p.o. from 3 weeks of age) is reported as “dose-dependent inhibition of arthritis development”.
